The values below come from EP4737449A1 (Changchun Genescience Pharmaceutical Co., Ltd., priority 2023, dated 2025).

Where two headings read alike, the source gives them in different places.

Data set [1] is described as follows: Pharmacokinetic study in SD rats. Particulars: rat, plasma; for AUC(0-t) / AUC(0-t) at 24 h: read-out: AUC0-24h. The format is in vivo. How it is done:
On the day of administration, the test sample was prepared using a 2% HPC + 5% solutol aqueous solution vehicle formula, and the drug solution was prepared and kept ready for use.
The PO group was given the designated dose. The animals in the oral administration group were fasted overnight, allowed free access to water, and returned to food 3 hours after administration.
The animals were weighed before administration, and the dose was calculated based on the body weight. The drug was administered once via PO on the day of administration. After administration in the PO group, blood was collected from the jugular vein at 0.083 h, 0.25 h, 0.5 h, 1.0 h, 2.0 h, 4.0 h, 6.0 h, 8.0 h and 24 h, about 200 µL each time, placed in EDTA-K2 anticoagulation blood collection tubes, centrifuged at 4000 rpm for 10 min (4°C), and plasma was separated within 1 h. The plasma was drawn into labeled EP tubes (the label should at least indicate the subject code, animal number, collection time, collection date, etc.), and stored at -80°C for testing. The process from blood collection to centrifugation was carried out in ice bath. The concentration of the test sample in SD rat plasma was detected using validated LC-MS/MS.

Data set [2] is described as follows: Pharmacokinetic study in beagles. The format is in vivo. Particulars: dog, plasma; for bioavailability: IV 1mpk/PO 2mpk. How it is done: On the day of administration, the test sample was prepared using a 5%DMSO+5%Solutol+90%Saline vehicle formula, and the drug solution was prepared and kept ready for use.
The IV group received a dose of 1 mg/kg, and the PO group received a dose of 2 mg/kg. The animals were fasted overnight before administration.
The animals were weighed before administration, and the dose was calculated based on the body weight. The drug was administered once via IV and PO on the day of administration. After administration, blood was collected from an appropriate vein at 0.083 h, 0.25 h, 0.5 h, 1.0 h, 2.0 h, 4.0 h, 6.0 h, 8.0 h and 24.0 h, about 1 mL each time, placed in EDTA-K2 anticoagulation blood collection tubes, centrifuged at 4000 rpm for 10 min (4°C), and plasma was separated within 1 h. The plasma was drawn into labeled EP tubes (the label should at least indicate the subject code, animal number, collection time, collection date, etc.), and stored at -80°C for testing. The process from blood collection to centrifugation was carried out in ice bath. The animals were allowed to eat and have free access to water 3 h after administration. The concentration of the test sample in beagle plasma was detected using validated LC-MS/MS.

In data set [3] the test system is human-derived lung cancer LU5269 subcutaneous xenograft. Kind of data set: Efficacy in human-derived lung cancer LU5269 subcutaneous xenograft model. The format is in vivo, NOD/SCID mice. Particulars: PO, QD*21. How it is done:
Tumor tissues were collected from LU5269 lung cancer xenograft model bearing mice, cut into tumor masses with a diameter of 2-3 mm, and seeded subcutaneously in the right anterior scapula of NOD/SCID mice.
Before administration, all animals were weighed and tumor volume was measured using a vernier caliper. When the tumor grew to have an average volume of about 140 mm^3, group-based drug administration was performed based on tumor size (vehicle: 0.2% HPC + 0.5% Tween 80). Since tumor volume can affect the effectiveness of treatment, random grouping design was used to group the mice according to tumor volume to ensure that the tumor volumes in different groups were similar. Tumor volume calculation formula: Tumor volume (mm^3) = 1/2 × (a ×b^2) (wherein a denotes the long diameter and b denotes the short diameter).
(§1) Table 12 Route, dose and regimen of administration in the subcutaneous xenograft model
On the technique in general: Xenograft models place foreign cells or tissue in a host animal.

Data set [4] in a line: Associated plasma PK in the LU5269 xenograft study. The format is in vivo, NOD/SCID mice. Particulars: mouse, PO, QD*21, plasma after the last administration. How it is done:
At the endpoint of the experiment, plasma samples from groups G2-G6 were collected: plasma was collected from the first 3 mice in each group at 0 h, 1 h, 2 h, and 4 h after the last administration; plasma was collected from the last 3 mice in each group at 0.5 h, 6 h, 9 h, and 24 h after the last administration.
as §1

For orientation: Cmax means the highest concentration seen after dosing. One may read the Vd as a proportionality between amount in the body and measured concentration, not a real space. Low readings indicate little distribution into tissue, high ones wide distribution into tissue. In general, clearance refers to the volume of plasma or blood freed of the substance per unit of time. Read a low clearance as a low capacity for elimination. A word on the bioavailability: it is the share of a dose that reaches the circulation, judged against a reference dose that is usually intravenous. A word on the Tmax: it is the time at which the peak concentration occurs. Turning to `CNC(=O)c1ccc(NCC#Cc2cc3c(N[C@@H]4CCN(C)C[C@@H]4F)cccc3n2CC(F)(F)F)c(OC)c1` [Control compound, reference compound], in data set [1] (50 mg/kg, po 50 mpk), the peak level (Cmax) was 11500 ng/mL and the AUC(0-t) was 148000 ng·h/mL. In data set [1] (300 mg/kg, po 300 mpk), the Cmax was 25400 ng/mL and the AUC(0-t) was 416000 ng·h/mL. In data set [2] (beagle, 1 mg/kg, IV 1mpk), this molecule displayed an AUC(0-t) of 849 ng·h/mL, a C0 of 277 ng/mL, a distribution volume (Vd) of 6.7 L/kg and a clearance of 20.4 mL/min/kg. Besides, in data set [2] (beagle, 1 mg/kg, IV 1mpk), the half-life was 4.8 h. The same molecule had a bioavailability in data set [2] (beagle, 2 mg/kg) of 82%. In addition, in data set [2] (beagle, 2 mg/kg, PO 2mpk), the AUC(0-t) came out at 1490 ng·h/mL, the highest level (Cmax) was 101 ng/mL, the Tmax came out at 4.7 h and the half-life is 6.7 h. Also, the TGI in data set [3] (100 mpk) is 119%. In addition, in data set [4] (NOD/SCID, 100 mg/kg, 100 mpk), the AUC(0-t) amounted to 413000 ng·h/mL and the peak level (Cmax) was 24300 ng/mL.

Take `CN1CC[C@@H](Nc2cccc3c(CC(F)(F)F)c(C#CCNC(=O)c4cnn(C(C)(C)C)c4N)nn23)[C@@H](F)C1` [Compound 047]: the Cmax in data set [1] (50 mg/kg, po 50 mpk) is 13200 ng/mL; in data set [1] (300 mg/kg, po 300 mpk), 32800 ng/mL; in data set [2] (2 mg/kg, PO 2mpk) it was 199 ng/mL; in data set [4] (50 mg/kg, 50mpk), 1690 ng/mL; in data set [4] (75 mg/kg, 75mpk), 2590 ng/mL; in data set [4] (100 mg/kg, 100 mpk), 4440 ng/mL. Also, the Cmax in data set [4] (150 mg/kg, 150mpk) is 5550 ng/mL. Also, the AUC(0-t) at 24 h was found to be 113000 ng·h/mL in data set [1] (50 mg/kg, po 50 mpk) and 431000 ng·h/mL in data set [1] (300 mg/kg, po 300 mpk). Moreover, the AUC(0-t) in data set [2] (1 mg/kg, IV 1mpk) amounted to 1400 ng·h/mL; in data set [2] (2 mg/kg, PO 2mpk) it was 1640 ng·h/mL; in data set [4] (50 mg/kg, 50mpk) it was 11700 ng·h/mL; in data set [4] (75 mg/kg, 75mpk) it was 24400 ng·h/mL; in data set [4] (100 mg/kg, 100 mpk), 39400 ng·h/mL; in data set [4] (150 mg/kg, 150mpk) it was 68000 ng·h/mL. This molecule also had a C0 in data set [2] (1 mg/kg, IV 1mpk) of 414 ng/mL. This molecule also displayed a Vd in data set [2] (1 mg/kg, IV 1mpk) of 3.8 L/kg. The clearance in data set [2] (1 mg/kg, IV 1mpk) was determined as 12.8 mL/min/kg. Further, the half-life is 5.6 h in data set [2] (1 mg/kg, IV 1mpk); 14 h in data set [2] (2 mg/kg, PO 2mpk); 2.2 h in data set [4] (50 mg/kg, 50mpk); 1.9 h in data set [4] (100 mg/kg, 100 mpk); 2.6 h in data set [4] (150 mg/kg, 150mpk). Further, the time of peak concentration (Tmax) in data set [2] (2 mg/kg, PO 2mpk) was found to be 2 h. For the same molecule, the bioavailability in data set [2] worked out at 42%. In addition, the TGI in data set [3] (50mpk) is listed as 82%; in data set [3] (75mpk), 111%; in data set [3] (100 mpk), 119%; in data set [3] (150mpk), 119%.
